Source: US20250115598A1 (Anaxis Pharma Pty Ltd, priority 2021, published 2025)
Like-named read-outs stand apart in the source and are kept apart here.

Tests used:
human MLKL (full length) = human MLKL (full length) (Homo sapiens (Human), UniProt Q8NB16); test: KINOMEscan binding assay, human MLKL (full length)
How it was run: (§1)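 Competition binding format with qPCR detection. Kinases, either phage-fused from E. coli lysates or HEK-293-derived with a DNA tag, bound ligand-coated beads in the presence of compound (11 points, 3-fold steps, 1% DMSO, top usually 30,000 nM). Kd from nonlinear Hill fitting with slope −1.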

human RIPK1 = human RIPK1 (Homo sapiens (Human), UniProt Q13546); test: KINOMEscan binding assay, human RIPK1; conditions: Table 21
How it was run: as §1

mouse MLKL (full length) = mouse MLKL (full length) (Mus musculus (Mouse), UniProt Q9D2Y4); test: KINOMEscan binding assay, mouse MLKL (full length); conditions: Table 22
Method: Binding affinity of the test compounds for human MLKL (full length), mouse MLKL (full length), human RIPK1 and human RIPK3 was determined using the KINOMEscan™ technology developed by DiscoverX (USA; http://www.discoverx.com). The assay was conducted according to manufacturer instructions.
Kinase assays. For most assays, kinase-tagged T7 phage strains were grown in parallel in 24-well blocks in an E. coli host derived from the BL21 strain. E. coli were grown to log-phase and infected with T7 phage from a frozen stock (multiplicity of infection=0.4) and incubated with shaking at 32° C. until lysis (90-150 minutes). The lysates were centrifuged (6,000×g) and filtered (0.2 μm) to remove cell debris. The remaining kinases were produced in HEK-293 cells and subsequently tagged with DNA for qPCR detection. […] The liganded beads were blocked with excess biotin and washed with blocking buffer (SeaBlock (Pierce), 1% BSA, 0.05% Tween 20, 1 mM DTT) to remove unbound ligand and to reduce non-specific phage binding. […] All reactions were performed in polypropylene 384-well plates in a final volume of 20 μL. […] The kinase concentration in the eluates was measured by qPCR.
An 11-point 3-fold serial dilution of each test compound was prepared in 100% DMSO at 100× final test concentration and subsequently diluted to 1× in the assay (final DMSO concentration=1%). Most Kos were determined using a compound top concentration=30,000 nM.
KD for each test compound was calculated with a standard dose-response curve using the Hill equation (equation (1)): […]
The Hill Slope was set to −1.
Curves were fitted using a non-linear least square fit with the Levenberg-Marquardt algorithm.

human RIPK3 = human RIPK3 (Homo sapiens (Human), UniProt Q9Y572); test: KINOMEscan binding assay, human RIPK3; conditions: Table 21
How it was run: as §1

[1] = system: U937 human histiocytic leukemia cell line; test: Cellular assay: inhibition of TSQ induced necroptosis, CellTitre-Glo viability; conditions: Homo sapiens, U-937; U937 cells, 48 hours, TSQ cocktail, Table 26; read-out: Inhibition of TSQ-induced necroptosis (IC50 cell-based assay)
How it was run: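 U937 cells (20,000/well) treated with compound (10-point, 36 μM top, 1:3) plus TSQ cocktail (hTNF-Fc 100 ng/ml, Smac mimetic 500 nM, Q-VD-OPh 10 μM), 48 h at 37° C., 0.3% DMSO. Viability by CellTitre-Glo ATP luminescence; counter screen without TSQ measured compound-only effects on viability.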

U937 cells = test: Counter screen: cell viability without the TSQ cocktail (off-target effect); parameters: species or system human; conditions: Homo sapiens, U-937, Table 26, read-out: Off-target effect (IC50 cell-based assay)
How it was run: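 U937 cells (20000/well, HT-RPMI + 7.4% FBS) treated with compound (10-point 1:3 dilution from 36 μM, 0.3% DMSO) without the TSQ cocktail for 48 h at 37 °C/5% CO2. Viability read as ATP by CellTiter-Glo luminescence, flagging off-target cytotoxicity.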

endogenous MLKL in U937 = endogenous MLKL in U937 (Homo sapiens (Human), UniProt Q8NB16); test: Degradation assay: endogenous MLKL in U937 (western blot); conditions: U937, 24 h incubation, read-out: Degradation of endogenous MLKL in U937 (DC50 cell-based assay)
How it was run: (§2)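 Western blot band intensity of MLKL, adjusted to GAPDH loading and normalized to DMSO-only wells, gave percent degradation. Compound exposure lasted 24 h at final concentrations of 10–0.016 μM in 1:5 steps, in mouse dermal fibroblasts or human U937 cells.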

endogenous MLKL in MDF = endogenous MLKL in MDF (Mus musculus (Mouse), UniProt Q9D2Y4); test: Degradation assay: endogenous MLKL in MDF (western blot); conditions: MDF cells, 24 h incubation with compound, MLKL adjusted for loading with GAPDH, normalized to DMSO only control, read-out: Degradation of endogenous MLKL in MDF (DC50 cell-based assay)
How it was run: as §2

[2] = system: Immortalised Mouse Dermal Fibroblasts (MDFs); test: Cellular assay: inhibition of TSI induced necroptosis, CellTitre-Glo viability; conditions: Mus musculus, Fibroblast; MDF, 3 hours TSI cocktail, Table 24; read-out: Inhibition of TSI-induced necroptosis (IC50 cell-based assay) in MDF
How it was run: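 Necroptosis induced for 3 h with TSI: rhTNF 100 ng/ml, Smac mimetic 500 nM, caspase inhibitor IDN-6556 10 μM. Mouse dermal fibroblasts had received compound (36 μM top, ten three-fold steps) 30 min beforehand. ATP-based viability scaled between untreated and TSI-only wells; IC50 taken as 4-parameter curve inflection.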

[3] = KINOMEscan, Table 21, read-out: Human MLKL (full-length) (KD)

Sequence of human RIPK1 (Q13546 whole entry): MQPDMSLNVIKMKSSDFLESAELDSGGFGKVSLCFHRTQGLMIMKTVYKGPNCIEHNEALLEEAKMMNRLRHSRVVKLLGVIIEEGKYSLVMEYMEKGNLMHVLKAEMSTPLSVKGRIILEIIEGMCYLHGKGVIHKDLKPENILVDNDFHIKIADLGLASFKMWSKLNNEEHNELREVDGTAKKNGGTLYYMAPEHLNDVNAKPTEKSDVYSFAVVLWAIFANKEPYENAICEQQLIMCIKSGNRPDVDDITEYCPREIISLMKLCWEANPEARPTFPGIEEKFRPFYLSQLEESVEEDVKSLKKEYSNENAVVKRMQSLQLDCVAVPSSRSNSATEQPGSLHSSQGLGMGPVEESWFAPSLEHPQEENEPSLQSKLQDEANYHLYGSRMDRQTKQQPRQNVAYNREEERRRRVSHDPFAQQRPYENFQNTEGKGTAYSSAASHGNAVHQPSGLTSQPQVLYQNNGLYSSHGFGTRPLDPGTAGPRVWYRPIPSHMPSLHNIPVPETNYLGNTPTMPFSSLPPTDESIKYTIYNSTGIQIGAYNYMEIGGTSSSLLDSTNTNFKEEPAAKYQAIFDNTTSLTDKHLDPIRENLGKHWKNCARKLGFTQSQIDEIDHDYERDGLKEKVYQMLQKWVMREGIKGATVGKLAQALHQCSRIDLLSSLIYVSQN
Sequence of mouse MLKL (full length) (Q9D2Y4 whole entry): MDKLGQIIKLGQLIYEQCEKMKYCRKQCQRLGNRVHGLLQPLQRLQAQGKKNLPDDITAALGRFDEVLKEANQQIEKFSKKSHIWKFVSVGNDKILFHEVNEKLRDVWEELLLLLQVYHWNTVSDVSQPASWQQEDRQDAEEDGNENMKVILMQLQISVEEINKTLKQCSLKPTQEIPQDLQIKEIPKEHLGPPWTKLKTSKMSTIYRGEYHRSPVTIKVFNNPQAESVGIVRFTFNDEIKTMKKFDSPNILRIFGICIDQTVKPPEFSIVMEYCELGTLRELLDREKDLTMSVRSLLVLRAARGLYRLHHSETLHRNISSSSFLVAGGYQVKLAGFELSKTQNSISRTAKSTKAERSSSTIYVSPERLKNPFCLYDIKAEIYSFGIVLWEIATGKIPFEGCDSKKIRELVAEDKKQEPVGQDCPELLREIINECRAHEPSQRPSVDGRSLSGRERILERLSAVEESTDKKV
Sequence of human MLKL (full length) (Q8NB16 whole entry, the tested form may be a part): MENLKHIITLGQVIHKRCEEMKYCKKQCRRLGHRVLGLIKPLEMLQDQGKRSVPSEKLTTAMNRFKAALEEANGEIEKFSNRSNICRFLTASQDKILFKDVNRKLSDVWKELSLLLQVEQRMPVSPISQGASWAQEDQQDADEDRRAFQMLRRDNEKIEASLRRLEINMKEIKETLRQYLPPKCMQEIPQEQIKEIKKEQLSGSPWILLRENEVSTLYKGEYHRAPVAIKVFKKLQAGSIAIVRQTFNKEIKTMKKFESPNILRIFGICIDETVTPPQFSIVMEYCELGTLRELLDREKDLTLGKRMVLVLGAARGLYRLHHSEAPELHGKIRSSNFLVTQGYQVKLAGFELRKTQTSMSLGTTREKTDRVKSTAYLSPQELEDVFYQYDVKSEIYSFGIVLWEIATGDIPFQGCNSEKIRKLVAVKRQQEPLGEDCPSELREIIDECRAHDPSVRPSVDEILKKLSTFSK
Sequence of human RIPK3 (Q9Y572 whole entry): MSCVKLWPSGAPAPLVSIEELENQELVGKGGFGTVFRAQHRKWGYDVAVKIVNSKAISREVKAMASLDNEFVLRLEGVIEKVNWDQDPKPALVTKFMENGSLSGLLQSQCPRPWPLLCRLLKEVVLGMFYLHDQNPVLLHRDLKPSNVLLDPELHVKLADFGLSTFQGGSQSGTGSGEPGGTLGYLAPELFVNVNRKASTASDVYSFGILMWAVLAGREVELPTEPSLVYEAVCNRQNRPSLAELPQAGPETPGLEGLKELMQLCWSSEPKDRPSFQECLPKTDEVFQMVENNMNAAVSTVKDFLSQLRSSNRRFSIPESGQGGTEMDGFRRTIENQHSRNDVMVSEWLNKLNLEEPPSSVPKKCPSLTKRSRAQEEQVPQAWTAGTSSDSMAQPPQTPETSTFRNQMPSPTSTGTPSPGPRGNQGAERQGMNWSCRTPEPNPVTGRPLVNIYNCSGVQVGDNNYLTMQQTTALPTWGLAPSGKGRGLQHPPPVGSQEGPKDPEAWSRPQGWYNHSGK
Sequence of endogenous MLKL in MDF (Q9D2Y4 whole entry): as the sequence (Q9D2Y4 whole entry) above
Sequence of endogenous MLKL in U937 (Q8NB16 whole entry): as the sequence (Q8NB16 whole entry, the tested form may be a part) above

| SMILES | Kd (human MLKL (full length); [3]) [nM] | Kd (human RIPK1) [µM] | Kd (mouse MLKL (full length)) [nM] | Kd (human RIPK3) [µM] | Kd (human MLKL (full length); hMLKL, Table 25, read-out: MLKL (KD)) [nM] | IC50 [1] [nM] | IC50 (U937 cells) [µM] | DC50 (endogenous MLKL in U937) [nM] | DC50 (endogenous MLKL in MDF) [nM] | IC50 [2] [nM] |
| --- | --- | --- | --- | --- | --- | --- | --- | --- | --- | --- |
| C[C@H](Oc1cc(-c2nn(C)c3c(-c4cnn(CCO)c4)cnc(N)c23)ccc1NS(=O)(=O)C(F)F)c1ccc(F)cc1 [Compound 15, (S)-N-(4-(4-amino-7-(1-(2-hydroxyethyl)-1H-pyrazol-4-yl)-1-methyl-1H-pyrazolo[4,3-c]pyridin-3-yl)-2-(1-(4-fluorophenyl)ethoxy)phenyl)-1,1-difluoromethanesulfonamide] | < 1 | > 10 | < 1 | > 10 |  |  |  |  |  |  |
| Cc1ncsc1-c1ccc(CNC(=O)[C@@H]2C[C@@H](O)CN2C(=O)[C@@H](NC(=O)CCCCCCn2cc(-c3cnc(N)c4c(-c5ccc(NS(=O)(=O)C(F)F)cc5)nn(C)c34)cn2)C(C)(C)C)cc1 [Compound 1022, (2S,4R)-1-[(2S)-2-[7-(4-{4-amino-3-[4-(difluoromethanesulfonamido)phenyl]-1-methyl-1H-pyrazolo[4,3-c]pyridin-7-yl}-1H-pyrazol-1-yl)heptanamido]-3,3-dimethylbutanoyl]-4-hydroxy-N-{[4-(4-methyl-1,3-thiazol-5-yl)phenyl]methyl}pyrrolidine-2-carboxamide] |  |  |  |  | < 10 | < 1000 | > 10 | < 1000 | < 1000 |  |
| C[C@H](Oc1cc(-c2nn(C)c3c(-c4cnn(CCN5CCN(C)CC5)c4)cnc(N)c23)ccc1NS(=O)(=O)C(F)F)c1ccc(F)cc1 [Compound 60, (S)-N-(4-(4-amino-1-methyl-7-(1-(2-(4-metyhlpiperazin-1-yl)ethyl)-1H-pyrazol-4-yl)-1H-pyrazolo[4,3-c]pyridin-3-yl)-2-(1-(4-fluorophenyl)ethoxy)phenyl)-1,1-difluoromethanesulfonamide] |  | > 10 | < 1 | > 10 |  |  |  |  |  |  |
| C[C@H](Oc1cc(-c2coc3c(-c4cnn(C5CCOCC5)c4)cnc(N)c23)ccc1NS(=O)(=O)C(F)F)c1ccc(F)cc1 [Compound 7, (S)-N-(4-(4-amino-7-(1-(tetrahydro-2H-pyran-4-yl)-1H-pyrazol-4-yl)furo[3,2-c]pyridin-3-yl)-2-(1-(4-fluoro-phenyl)eth-oxy)phenyl)-1,1-difluoro-methanesulfonamide] |  | > 10 | < 1 | > 10 |  |  |  |  |  |  |
| C[C@H](Oc1cc(-c2coc3c(-c4cnn(C)c4)cnc(N)c23)ccc1NS(=O)(=O)C(F)F)c1ccc(F)cc1 [Compound 8, (S)-N-(4-(4-amino-7-(1-methyl-1H-pyrazol-4-yl)furo[3,2-c]pyridin-3-yl)-2-(1-(4-fluorophenyl)eth-oxy)phenyl)-1,1-difluoromethane-sulfonamide] | < 1 | > 10 | < 1 | > 10 |  |  |  |  |  |  |
| C[C@H](Oc1cc(-c2nn(C)c3c(-c4cnn(C)c4)cnc(N)c23)ccc1NS(=O)(=O)C(F)F)c1ccc(F)cc1 [Compound 20, (S)-N-(4-(4-amino-1-methyl-7-(1-methyl-1H-pyrazol-4-yl)-1H-pyrazolo[4,3-c]pyridin-3-yl)-2-(1-(4-fluorophenyl)ethoxy)phenyl)-1,1-difluoromethanesulfonamide] | < 1 | > 10 | < 1 | > 10 |  |  |  |  |  |  |
| Nc1ncc(-c2cnn(C3CCOCC3)c2)c2occ(-c3ccc(NS(=O)(=O)C(F)F)c(OCc4ccc(F)cc4)c3)c12 [Compound 5, N-(4-(4-amino-7-(1-(tetrahydro-2H-pyran-4-yl)-1H-pyrazol-4-yl)furo[3,2-c]pyridin-3-yl)-2-((4-fluorobenzyl)oxy)phenyl)-1,1-difluoro-methanesulfonamide] | < 1 |  | < 1 |  |  |  |  |  |  |  |
| C[C@H](Oc1cc(-c2nn(C)c3c(-c4cnn(C5CCOCC5)c4)cnc(N)c23)ccc1NS(=O)(=O)C(F)F)c1ccc(F)cc1 [Compound 19] | < 1 |  | < 1 |  |  |  |  |  |  | < 1000 |
| Cn1nc(-c2ccc(NS(=O)(=O)C(F)F)c(OCc3ccc(F)cc3)c2)c2c(N)ncc(-c3cnn(C4CCOCC4)c3)c21 [Compound 13, N-(4-(4-amino-1-methyl-7-(1-(tetrahydro-2H-pyran-4-yl)-1H-pyrazol-4-yl)-1H-pyrazolo[4,3-c]pyridin-3-yl)-2-((4-fluoro-benzyl)oxy)phenyl)-1,1-difluoromethane-sulfonamide] | < 1 | > 10 | < 1 | > 10 |  |  |  |  |  |  |
